Patent publication EP0981359B1, “COMPOSITIONS FOR ENHANCING IMMUNOSUPPRESSANTS' PHARMACOLOGICAL ACTIVITIES” (Zavialov, Vladimir Petrovich, priority 1997, dated 1998)

Legend:
[1] = tested on: human T-lymphoblastoid cell line MT-4; assay: proliferation of IFN-sensitive T-lymphoblastoid cell line; format: cell-based; conditions: MT-4 cell line
human peripheral cells = assay: mitogen (PHA)-driven proliferation, [3H]-thymidine incorporation; format: cell-based
Description: Ninety five ml of blood were taken from each of 10 volunteer donors, and 5 ml of 3-5% EDTA were added to the blood immediately and mixed carefully to prevent coagulation. The blood was than mixed with the equal volume of medium 199 or with buffered physiological salt solution. Ficoll-Paque (Pharmacia) was poured into plastic centrifuge test-tubes with caps (Costar) (3 ml of Ficoll-Paque per each test-tube, volume of a test-tube - 15 ml, diameter - 13 mm at room temperature, and then 6-7 ml of diluted blood were carefully layered on top). The test-tubes were centrifuged at 20 °C for 40 minutes, at 400 g, with the brake of centrifuge being switched off. The mononuclear cells formed a layer on the border of the liquid division and the cells were collected with a Pasteur pipette into a centrifuge test-tube with 5 ml of RPMI 1640, containing 2% of inactivated fetal serum and penicillin (100 units/ml) with streptomycin (100 units/ml). Then the cells were washed with physiological buffer solution (PBS) three times with centrifuging at 400 g for 5 minutes at the temperature of +8 °C. When the concentration of the cells was 2.5^·10^6 cells/ml, they were placed in RPMI 1640 medium, containing 5% of fetal serum (heated for 30 minutes at 56 °C), 100 units/ml of penicillin, 100 units/ml of streptomycin, 1 ml 200 mM of L-glutamine per 100 ml of serum. All the reagents were produced by Gibco. The cells were dropped into a 96-well plate (100 µl per each plate) with mitogen - phytohemagglutinin (PHA) (final concentration - […]), the preparations under study and immunosuppressants (cyclosporin A, FK506 or rapamycin) in concentration - […]) were pipetted into the tubes beforehand. The plate was placed in a CO2-incubator at 5% CO2 with humid atmosphere for 72 hours. 12-18 hours before the completion of the incubation […] of [^3H]-thymidine was added into each well. […] The number of disintegrations per minute was counted using a Minibeta counter (LKB). The stimulation index was determined by arithmetical mean of at least three parallel measurements ±SD to the corresponding control.

[2] = biological target: common receptors on mouse thymocytes; conditions: cited from earlier work

α-peptoferon: octapeptide corresponding to the high-affinity binding/anti-lymphoproliferative site of hIFN-α2 (TMα1-like sequence 130-137) (LKEKKYSP; UniProt P01563 153-160, looked up, fragment)
effect on the proliferation of MT-4 [1]: inhibited by rhIFN-α2 and a-peptoferon in a dose-dependent fashion
effect on the proliferation of MT-4 compared with rhIFN-α2 [1]: comparable effects
effect on mitogen (PHA)-driven proliferation (lymphoproliferative response) (human peripheral cells; PHA, 72 hours, no immunosuppressant): inhibited by rhIFN-α2 and a-peptoferon in a dose-dependent fashion
effect on PHA-driven proliferation compared with rhIFN-α2 (human peripheral cells; PHA, no immunosuppressant): comparable effects
effect on PHA-driven proliferation in the presence of cyclosporin A (human peripheral cells; in the presence of 20 mM CsA in cultural medium, rhIFN-α2 at 10^-16 M): comparable effect
Ki ([2]; mouse thymocytes, read-out: Ki of recombinant (r)hIFN-α2 binding by α-peptoferon): ~1 pM
affinity to the specific receptors in comparison with recombinant hIFN-α2 ([2]; previous studies): the same or higher affinity
